In PMC5072426, “Inhibition of cathepsin B by caspase-3 inhibitors blocks programmed cell death in Arabidopsis” (Cell Death and Differentiation, 2016):
Peptide text beside a SMILES is read from it.

Molecular target: T1, recombinant AtCathB3 (Arabidopsis cathepsin B3) (Arabidopsis thaliana, UniProt Q94K85)
T1 construct: gene CATHB3; 25-residue signal peptide removed; N-terminal cherrytag (11 kDa), C-terminal 6xHis; secreted from baculovirus-infected insect cells (Sf9/Hi-5); N-glycosylated
T1 sequence (Q94K85 26-359): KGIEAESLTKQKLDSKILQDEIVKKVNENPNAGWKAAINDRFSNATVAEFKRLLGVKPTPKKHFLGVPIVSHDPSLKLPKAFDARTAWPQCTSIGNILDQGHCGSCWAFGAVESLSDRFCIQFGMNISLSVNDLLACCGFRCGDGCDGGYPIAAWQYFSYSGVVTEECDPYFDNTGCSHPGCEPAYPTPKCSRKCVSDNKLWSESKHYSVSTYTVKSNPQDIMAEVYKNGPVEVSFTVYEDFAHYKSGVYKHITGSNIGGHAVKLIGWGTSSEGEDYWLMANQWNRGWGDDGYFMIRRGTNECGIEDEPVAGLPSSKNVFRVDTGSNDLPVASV
Assay: fluorogenic DEVDase assay, inhibitor pre-incubated […] min
Type: biochemical

remaining activity at 1000 µM | remaining activity at 100 µM | SMILES
0% | – | CCCNC(=O)[C@H]1O[C@@H]1C(=O)N[C@H](C(=O)N1CCC[C@H]1C(=O)O)[C@@H](C)CC [CA-074]
– | 0.3% | CC(C)[C@H](NC(=O)[C@H](CCC(=O)O)NC(=O)[C@H](CC(=O)O)NC(=O)OCc1ccccc1)C(=O)N[C@H](C=O)CC(=O)O [DEVD-CHO, Z-DEVD-CHO]
– | 0% | CC(=O)N[C@@H](CC(C)C)C(=O)N[C@H](C(=O)N[C@H](C=O)CCCCN)C(C)C [LVK-CHO, Ac-LVK-CHO] (Ac-Leu-Val-Lys-aldehyde)
– | 43.3 ± 0.6% | CC(=O)N[C@@H](Cc1ccc(O)cc1)C(=O)N[C@H](C(=O)N[C@@H](C)C(=O)N[C@H](C=O)CC(=O)O)C(C)C [YVAD-CHO, Ac-YVAD-CHO]
